The results in this text go back to patent US8822503B2, “2-pyridone compounds” (Taisho Pharmaceutical Co., Ltd, priority 2009, dated 2014).

This assay deals with T1, human liver GK (Homo sapiens, UniProt P35557).
T1 construct: GST (glutathione S-transferase) (N); made in house; host or cells: E. coli
T1 sequence (P35557 1-466 isoform P35557-2): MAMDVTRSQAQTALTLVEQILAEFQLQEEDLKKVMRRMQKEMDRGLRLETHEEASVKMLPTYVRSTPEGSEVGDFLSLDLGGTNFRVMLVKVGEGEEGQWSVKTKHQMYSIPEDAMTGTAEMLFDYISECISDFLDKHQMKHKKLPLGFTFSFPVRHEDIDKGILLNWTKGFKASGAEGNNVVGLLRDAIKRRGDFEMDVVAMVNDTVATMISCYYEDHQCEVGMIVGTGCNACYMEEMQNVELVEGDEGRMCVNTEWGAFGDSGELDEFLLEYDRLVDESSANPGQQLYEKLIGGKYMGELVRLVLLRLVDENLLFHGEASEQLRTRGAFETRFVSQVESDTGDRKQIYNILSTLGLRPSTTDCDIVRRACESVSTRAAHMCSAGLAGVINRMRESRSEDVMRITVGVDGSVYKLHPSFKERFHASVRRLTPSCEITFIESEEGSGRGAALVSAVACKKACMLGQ
The assay can be described thus: GK activation test. In kind it is biochemical. The following applies: test compound concentration needed to activate 50% of maximum activation ability; 4 mM 14C-labeled glucose, 2 mM ATP, room temperature, 20 minutes. An outline of the steps: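 GST-tagged human liver GK from E. coli (0.24 μg/well) with 4 mM 14C-glucose, 2 mM ATP in Hepes-KOH pH 7.1, KCl, MgCl2, DTT, 1% DMSO, 20 min room temperature. Labeled glucose 6-phosphate captured on anion resin, eluted and counted. EC50 = concentration giving half of maximal activation.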
As to `CC(C)(C)c1ccc(/C(=C\[C@H]2CCC(=O)N2)c2ccc(-c3cccnc3)c(=O)[nH]2)cc1` [Example 4-180, 6-{(E)-1-(4-tert-Butylphenyl)-2-[(2R)-5-oxopyrrolidin-2-yl]ethenyl}-3,3′-bipyridin-2(1H)-one], the EC50 (as a rule, the concentration at which the effect is half-maximal) lay in the range of 10 to 500 nM.

The compound `O=C1CC[C@H](/C=C(\c2ccc3ccccc3c2)c2ccc(Cl)c(=O)[nH]2)N1` [Example 4-149, 3-Chloro-6-{(E)-1-(naphthalen-2-yl)-2-[(2R)-5-oxopyrrolidin-2-yl]ethenyl}pyridin-2(1H)-one] displayed an EC50 of 500 to 3000 nM.

In the case of `O=C1CC[C@H](/C=C(/c2ccc(Cl)c(=O)[nH]2)c2cccc3ccccc23)N1` [Example 4-150, 3-Chloro-6-{(E)-1-(naphthalen-1-yl)-2-[(2R)-5-oxopyrrolidin-2-yl]ethenyl}pyridin-2(1H)-one], the EC50 fell in the range of 3000 to 10000 nM.

Regarding `Cc1cc(/C(=C\[C@H]2CCC(=O)N2)c2ccc(Cl)c(=O)[nH]2)ccc1SC1CC1` [Example 4-34, 3-Chloro-6-{(E)-1-[4-(cyclopropylsulfanyl)-3-methylphenyl]-2-[(2R)-5-oxopyrrolidin-2-yl]ethenyl}pyridin-2(1H)-one], the concentration giving a half-maximal response (EC50) was in the range of 500 to 3000 nM.

As for `O=C1CC[C@H](/C=C(\c2ccc(OCCF)cc2)c2ccc(C3CC3)c(=O)[nH]2)N1` [Example 4-287, 3-Cyclopropyl-6-{(E)-1-[4-(2-fluoroethoxy)phenyl]-2-[(2R)-5-oxopyrrolidin-2-yl]ethenyl}pyridin-2(1H)-one], the EC50 is 10 to 500 nM.

`Cc1ccc(/C(=C/[C@H]2CCC(=O)C2)c2ccc(S(=O)(=O)C3CC3)cc2)[nH]c1=O` [Example 1-61, 6-{(E)-1-[4-(Cyclopropylsulfonyl)phenyl]-2-[(1S)-3-oxocyclopentyl]ethenyl}-3-methylpyridin-2(1H)-one]: the EC50 was 10 to 500 nM.

The compound `CN1CCN(S(=O)(=O)c2ccc(/C(=C\C3CCCC3)c3ccc(Cl)c(=O)[nH]3)cc2)CC1` [Example 1-46, 3-Chloro-6-[(E)-2-cyclopentyl-1-{4-[(4-methylpiperazin-1-yl)sulfonyl]phenyl}ethenyl]pyridin-2(1H)-one] registered an EC50 of 500 to 3000 nM.

The compound `CSc1ccc(/C(=C\[C@H]2CCC(=O)N2)c2ccc(C3CC3)c(=O)[nH]2)cc1` [Example 4-1, 3-Cyclopropyl-6-{(E)-1-[4-(methylsulfanyl)phenyl]-2-[(2R)-5-oxopyrrolidin-2-yl]ethenyl}pyridin-2(1H)-one] yielded an EC50 of 10 to 500 nM.

With `COCCCCc1ccc(/C(=C\[C@H]2CCC(=O)N2)c2ccc(Cl)c(=O)[nH]2)cc1` [Example 4-73, 3-Chloro-6-{(E)-1-[4-(4-methoxybutyl)phenyl]-2-[(2R)-5-oxopyrrolidin-2-yl]ethenyl}pyridin-2(1H)-one], the EC50 was in the range of 500 to 3000 nM.

`CCOc1ccc(/C(=C\C2CCOCC2)c2ccc(C3CC3)c(=O)[nH]2)cc1` [Example 1-52, 3-Cyclopropyl-6-[(E)-1-(4-ethoxyphenyl)-2-(tetrahydro-2H-pyran-4-yl)ethenyl]pyridin-2(1H)-one] had an EC50 of 500 to 3000 nM.

Regarding `CSc1ccc(/C(=C\C2CCCC2)c2ccc(C)c(=O)[nH]2)cc1Cl` [Example 1-18, 6-{(E)-1-[3-Chloro-4-(methylsulfanyl)phenyl]-2-cyclopentylethenyl}-3-methylpyridin-2(1H)-one], the EC50 was 10 to 500 nM.

`CCOc1ccc(C(C[C@H]2CCC(=O)N2)c2ccc(Cl)c(=O)[nH]2)cc1C` (single isomer, unassigned) [Example 4-240] gave an EC50 of 3000 to 10000 nM.

On to `Cn1ccc(=O)n(C/C=C(\c2ccc(C(C)(C)C)cc2)c2ccc(Cl)c(=O)[nH]2)c1=O` [Example 6-31, 3-[(2E)-3-(4-tert-Butylphenyl)-3-(5-chloro-6-oxo-1,6-dihydropyridin-2-yl)prop-2-en-1-yl]-1-methylpyrimidine-2,4(1H, 3H)-dione], for which the EC50 lay in the range of 500 to 3000 nM.

`NS(=O)(=O)c1ccc(/C(=C\[C@H]2CCC(=O)N2)c2ccc(C3CC3)c(=O)[nH]2)cc1` [Example 4-137, 4-{(E)-1-(5-Cyclopropyl-6-oxo-1,6-dihydropyridin-2-yl)-2-[(2R)-5-oxopyrrolidin-2-yl]ethenyl}benzenesulfonamide] showed an EC50 of 10 to 500 nM.

The compound `O=C1CC[C@H](/C=C(\c2ccc(C(F)F)cc2)c2ccc(C3CC3)c(=O)[nH]2)N1` [Example 4-273, 3-Cyclopropyl-6-{(E)-1-[4-(difluoromethyl)phenyl]-2-[(2R)-5-oxopyrrolidin-2-yl]ethenyl}pyridin-2(1H)-one] returned an EC50 of 10 to 500 nM.

The compound `CC(C)(C)c1ccc(/C(=C\[C@H]2CCC(=O)N2)c2ccc(OC(F)F)c(=O)[nH]2)cc1` [Example 4-165, 6-{(E)-1-(4-tert-Butylphenyl)-2-[(2R)-5-oxopyrrolidin-2-yl]ethenyl}-3-(difluoromethoxy)pyridin-2(1H)-one] returned an EC50 of 10 to 500 nM.

Compound `CC(C)(C)c1ccc(/C(=C\[C@H]2CCC(=O)N2)c2ccc(C(F)(F)F)c(=O)[nH]2)cc1` [Example 4-74, 6-{(E)-1-(4-tert-Butylphenyl)-2-[(2R)-5-oxopyrrolidin-2-yl]ethenyl}-3-(trifluoromethyl)pyridin-2(1H)-one] displayed an EC50 of 10 to 500 nM.

In the case of `CN(C)S(=O)(=O)Nc1ccc(/C(=C\[C@H]2CCC(=O)N2)c2ccc(C3CC3)c(=O)[nH]2)cc1` [Example 4-139, N′-(4-{(E)-1-(5-Cyclopropyl-6-oxo-1,6-dihydropyridin-2-yl)-2-[(2R)-5-oxopyrrolidin-2-yl]ethenyl}phenyl)-N,N-dimethylsulfuric acid diamide], the half-maximal effective concentration (EC50) fell in the range of 10 to 500 nM.

The compound `CCc1ccc(C(CC2CCCC2)c2ccc(S(C)(=O)=O)cc2)[nH]c1=O` (stereo not shown) [Example 2-7, 6-{2-Cyclopentyl-1-[4-(methylsulfonyl)phenyl]ethyl}-3-ethylpyridin-2(1H)-one] registered an EC50 of 500 to 3000 nM.

Take `CC(C)(CO)COc1ccc(/C(=C/[C@H]2CCC(=O)N2)c2ccc(C(F)(F)F)cc2)[nH]c1=O` [Example 4-171, 3-(3-Hydroxy-2,2-dimethylpropoxy)-6-{(E)-2-[(2R)-5-oxopyrrolidin-2-yl]-1-[4-(trifluoromethyl)phenyl]ethenyl}pyridin-2(1H)-one]: the half-maximal effective concentration (EC50) fell in the range of 3000 to 10000 nM.

As to `O=C1CC[C@H](/C=C(\c2ccc(C(F)F)c(F)c2)c2ccc(C3CC3)c(=O)[nH]2)N1` [Example 4-131, 3-Cyclopropyl-6-{(E)-1-[4-(difluoromethyl)-3-fluorophenyl]-2-[(2R)-5-oxopyrrolidin-2-yl]ethenyl}pyridin-2(1H)-one], the EC50 was in the range of 10 to 500 nM.

Regarding `O=C1CC[C@H](/C=C(\c2ccc(SC(F)(F)F)cc2)c2ccc(C3CC3)c(=O)[nH]2)N1` [Example 4-141, 3-Cyclopropyl-6-[(E)-2-[(2R)-5-oxopyrrolidin-2-yl]-1-{4-[(trifluoromethyl)sulfanyl]phenyl}ethenyl]pyridin-2(1H)-one], the EC50 lay within 10 to 500 nM.

`CCc1ccc(C(C[C@H]2CCC(=O)N2)c2ccc(Cl)c(=O)[nH]2)cc1Cl` (single isomer, unassigned) [Example 4-325] gave an EC50 of 3000 to 10000 nM.

As for `CC(C)CCOc1ccc(/C(=C\[C@H]2CCC(=O)N2)c2ccc(Cl)c(=O)[nH]2)cc1Cl` [Example 4-20, 3-Chloro-6-{(E)-1-[3-chloro-4-(3-methylbutoxy)phenyl]-2-[(2R)-5-oxopyrrolidin-2-yl]ethenyl}pyridin-2(1H)-one], the EC50 was 10 to 500 nM.

Turning to `Cc1nc(C)c(-c2ccc(/C(=C/[C@H]3CCC(=O)N3)c3ccc(C(C)(C)C)cc3)[nH]c2=O)s1` [Example 4-181, 6-{(E)-1-(4-tert-Butylphenyl)-2-[(2R)-5-oxopyrrolidin-2-yl]ethenyl}-3-(2,4-dimethyl-1,3-thiazol-5-yl)pyridin-2(1H)-one], the EC50 fell in the range of 500 to 3000 nM.

Compound `CC(C)(C)c1ccc(C(C[C@H]2CCC(=O)N2)c2ccc(Cl)c(=O)[nH]2)cc1` (single isomer, unassigned) [Example 4-69] gave a half-maximal effective concentration (EC50) of 3000 to 10000 nM.

Regarding `O=C1CC[C@H](/C=C(\c2ccc(OC(F)F)cc2)c2ccc(C3CC3)c(=O)[nH]2)N1` [Example 4-127, 3-Cyclopropyl-6-{(E)-1-[4-(difluoromethoxy)phenyl]-2-[(2R)-5-oxopyrrolidin-2-yl]ethenyl}pyridin-2(1H)-one], the EC50 is 10 to 500 nM.

`O=C1CCC(CC(c2ccc(C(F)F)cc2)c2ccc(C3CC3)c(=O)[nH]2)N1` (single isomer, unassigned) [Example 4-341, 3-Cyclopropyl-6-[1-[4-(difluoromethyl)phenyl]-2-(5-oxopyrrolidin-2-yl)ethyl]pyridin-2(1H)-one] had an EC50 of 3000 to 10000 nM.

`CC(C)c1ccc(C(C[C@H]2CCC(=O)N2)c2ccc(Cl)c(=O)[nH]2)cc1` (single isomer, unassigned) [Example 4-85] had an EC50 of 500 to 3000 nM.

Turning to `CC(C)(C)c1ccc(/C(=C\[C@H]2CCC(=O)N2)c2ccc(-c3ccccc3)c(=O)[nH]2)cc1` [Example 4-178, 6-{(E)-1-(4-tert-Butylphenyl)-2-[(2R)-5-oxopyrrolidin-2-yl]ethenyl}-3-phenylpyridin-2(1H)-one], the EC50 was 10 to 500 nM.

With `CCCc1ccc(/C(=C/[C@H]2CCC(=O)N2)c2ccc(C(C)(C)C)cc2)[nH]c1=O` [Example 4-192, 6-{(E)-1-(4-tert-Butylphenyl)-2-[(2R)-5-oxopyrrolidin-2-yl]ethenyl}-3-propylpyridin-2(1H)-one], the EC50 fell in the range of 10 to 500 nM.
